Assay results: US20210254106A1, “ENGINEERING B LYMPHOCYTES BY UTILIZING ENDOGENOUS ACTIVATION-INDUCED CYTIDINE DEAMINASE” (INSTITUTE FOR RESEARCH IN BIOMEDICINE, priority 2018, published 2021)

Tested on: naïve B cells (IgM+ IgD+ CD27− IgG− IgA−)
Experiment: in vitro acquisition of natural switch region inserts in stimulated naïve B cells with DNA repair inhibitors
Format: cell-based, human
Conditions: Olaparip 4 nM or SCR7 100 nM in culture medium vs DMSO control; B cells stimulated with K562L (CD40L) and IL4; harvested day 10; 50 000 sorted IgG switched B cells; γ-switch region PCR and MinION sequencing
Procedure: To this end, B cells were isolated by magnetic beads using anti-CD19 beads, followed by FACS-sorting and selection of naïve B cells (IgM^+ IgD^+ CD27^− IgG^− IgA^−). Cells were plated in 48 well plates at concentrations of 50 000 B cells/ml and stimulated with 25 000 irradiated K562L/ml and 8 ng/ml IL4. The DNA repair inhibitor Olaparip (4 nM), SCR7 (100 nM) or DMSO (1:100) as control were added to the culture medium. At day 3 and day 6 the culture medium was replaced which fresh medium supplemented with IL4 and inhibitors. Cells were harvested at day 10 and stained with fluorescently labeled anti-CD19 and anti-IgG antibodies. Switched IgG B cell were sorted by flow cytometry and gDNA was isolation using a commercial kit. Genomic DNA of 50 000 sorted cells were used for γ-switch region PCR amplification and MINION sequencing as described above. Inserts frequencies were analyzed with a bioinformatics pipeline (Pieper K, Tan J, Piccoli L, Foglierini M, Barbieri S, Chen Y, Silacci-Fregni C, Wolf T, Jarrossay D, Anderle M, Abdi A, Ndungu F M, Doumbo O K, Traore B, Tran T M, Jongo S, Zenklusen I, Crompton P D, Daubenberger C, Bull P C, Sallusto F, Lanzavecchia A: Public antibodies to malaria antigens generated by two LAIR1 insertion modalities. Nature. 2017. Aug. 31; 548(7669):597-601).

## O=C(c1cc(Cc2n[nH]c(=O)c3ccccc23)ccc1F)N1CCN(C(=O)C2CC2)CC1 [Olaparib]
  natural switch insert frequencies: elevated

## SCR7
  natural switch insert frequencies: decreased
